# From ChEMBL document CHEMBL1201862, “PubChem BioAssay data set” (2004)
#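 Briefly, cells in 96-well plates were exposed to five compound concentrations for 48 h, and endpoints were estimated by linear interpolation. GI50 is the concentration that inhibits growth by half.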 Calls of active or inactive are those of the source. Cut-off read from the data, not from the text of the source: active = GI50 up to about 1.1 µM and inactive = higher. Positions of bridges follow the written chain, without caps; N, C: chain ends. Non-standard residues stand in square brackets, D forms with d. Residues, ends and D or L forms follow the SMILES beside them. ξ: configuration not given here. *: point of attachment. X28 = O=C(/C=C/C=C/C=C/C=C/C=C/C(=O)*)NC1=C(O)CCC1=O; Pro(4R-Me) = C[C@H]1CN[C@H](C(=O)O)C1; NMeA = CN[C@@H](C)C(=O)O; ξF = NC(Cc1ccccc1)C(=O)O; ξA = CC(N)C(=O)O
# What was measured:
# Assay in all cases: inhibition of tumour cell growth, NCI panel, 48 h
# SK-MEL-28 = system: SK-MEL-28
# MDA-MB-435 = system: MDA-MB-435
# HL-60 = system: HL-60
# UACC-257 = system: UACC-257
# PC-3 = system: PC-3
# MDA-N = system: MDA-N
# HCT-116 = system: HCT-116
# DU-145 = system: DU-145
# K562 = system: K562
# Malme-3M = system: Malme-3M
# MOLT-4 = system: MOLT-4
# SK-OV-3 = system: SK-OV-3
# NCI-H522 = system: NCI-H522
# HCT-15 = system: HCT-15
# OVCAR-8 = system: OVCAR-8
# CAKI-1 = system: CAKI-1
# ACHN = system: ACHN
# SN12C = system: SN12C
# SF-268 = system: SF-268
SMILES,GI50 (SK-MEL-28),GI50 (MDA-MB-435),GI50 (HL-60),GI50 (UACC-257),GI50 (PC-3),GI50 (MDA-N),GI50 (HCT-116),GI50 (DU-145),GI50 (K562),GI50 (Malme-3M),GI50 (MOLT-4),GI50 (SK-OV-3),GI50 (NCI-H522),GI50 (HCT-15) [µM],GI50 (OVCAR-8),GI50 (CAKI-1),GI50 (ACHN),GI50 (SN12C),GI50 (SF-268)
COc1ccc(NC2=NCCO2)c2c1CCCC2,30.9 µM (inactive),29.6 µM (inactive),15.5 µM (inactive),26.3 µM (inactive),26.7 µM (inactive),35.6 µM (inactive),28.8 µM (inactive),51.2 µM (inactive),28.3 µM (inactive),34.1 µM (inactive),10.5 µM (inactive),18.4 µM (inactive),31.8 µM (inactive),31.6,36.7 µM (inactive),54.1 µM (inactive),29.6 µM (inactive),,
O=c1oc2c/c(=C\c3ccccn3)c(=O)c3cccc1c3-2,> 100 µM (inactive),> 100 µM (inactive),> 100 µM (inactive),> 100 µM (inactive),72.6 µM (inactive),> 100 µM (inactive),35.2 µM (inactive),> 100 µM (inactive),> 100 µM (inactive),72.3 µM (inactive),49.3 µM (inactive),> 100 µM (inactive),16.1 µM (inactive),> 100,16.5 µM (inactive),> 100 µM (inactive),44.7 µM (inactive),95.5 µM (inactive),30.8 µM (inactive)
CCC1(CC)C(=O)N(C(=O)c2ccccc2)N(C(=O)c2ccc(Cl)cc2)C1=O,> 75 µM (inactive),> 75 µM (inactive),22 µM (inactive),> 75 µM (inactive),> 75 µM (inactive),> 75 µM (inactive),43.9 µM (inactive),> 75 µM (inactive),32.9 µM (inactive),> 75 µM (inactive),17 µM (inactive),> 75 µM (inactive),25.4 µM (inactive),72.3,> 75 µM (inactive),> 75 µM (inactive),> 75 µM (inactive),> 75 µM (inactive),> 75 µM (inactive)
COc1ccc(OC)c(-c2cc(C(=O)O)c3cc4ccccc4cc3n2)c1,> 100 µM (inactive),> 100 µM (inactive),> 100 µM (inactive),> 100 µM (inactive),> 100 µM (inactive),> 100 µM (inactive),> 100 µM (inactive),> 100 µM (inactive),> 100 µM (inactive),> 100 µM (inactive),> 100 µM (inactive),> 100 µM (inactive),> 100 µM (inactive),> 100,> 100 µM (inactive),> 100 µM (inactive),> 100 µM (inactive),> 100 µM (inactive),> 100 µM (inactive)
COc1ccc2c(c1)CCc1[nH]c3ccccc3c1CCCC2,> 10 µM (inactive),> 10 µM (inactive),> 10 µM (inactive),> 10 µM (inactive),> 10 µM (inactive),> 10 µM (inactive),> 10 µM (inactive),> 10 µM (inactive),> 10 µM (inactive),> 10 µM (inactive),> 10 µM (inactive),> 10 µM (inactive),> 10 µM (inactive),> 10,> 10 µM (inactive),> 10 µM (inactive),> 10 µM (inactive),> 10 µM (inactive),> 10 µM (inactive)
C[C@]12CCC(=O)O[C@H]1CCCCO2,> 100 µM (inactive),> 100 µM (inactive),> 100 µM (inactive),> 100 µM (inactive),> 100 µM (inactive),> 100 µM (inactive),> 100 µM (inactive),> 100 µM (inactive),> 100 µM (inactive),> 100 µM (inactive),> 100 µM (inactive),> 100 µM (inactive),> 100 µM (inactive),> 100,> 100 µM (inactive),> 100 µM (inactive),,> 100 µM (inactive),> 100 µM (inactive)
O=C1CN(c2ccccc2)Cc2nc(Cl)ccc2N1,> 100 µM (inactive),> 100 µM (inactive),> 100 µM (inactive),> 100 µM (inactive),79.4 µM (inactive),> 100 µM (inactive),> 100 µM (inactive),> 100 µM (inactive),> 100 µM (inactive),58.1 µM (inactive),> 100 µM (inactive),> 100 µM (inactive),> 100 µM (inactive),> 100,> 100 µM (inactive),> 100 µM (inactive),> 100 µM (inactive),> 100 µM (inactive),> 100 µM (inactive)
CCCNC(=O)Cn1c(-c2ccccc2)cc2ccccc21,92.3 µM (inactive),77.3 µM (inactive),> 100 µM (inactive),> 100 µM (inactive),41.1 µM (inactive),83.4 µM (inactive),24.2 µM (inactive),> 100 µM (inactive),> 100 µM (inactive),92 µM (inactive),85.1 µM (inactive),29.4 µM (inactive),23.7 µM (inactive),75,> 100 µM (inactive),52 µM (inactive),71.8 µM (inactive),> 100 µM (inactive),92 µM (inactive)
Cc1cc(N(CCC#N)CCC#N)ccc1C(/N=N/c1ccccc1)=N\NC(=O)c1ccccc1,,8.04 µM (inactive),35.7 µM (inactive),38.5 µM (inactive),16.9 µM (inactive),7.96 µM (inactive),20.6 µM (inactive),21.7 µM (inactive),9.84 µM (inactive),34 µM (inactive),19.5 µM (inactive),53.5 µM (inactive),16.3 µM (inactive),18.3,24.3 µM (inactive),28.2 µM (inactive),16.4 µM (inactive),43.9 µM (inactive),42.8 µM (inactive)
N=C1C(=N)c2ccccc2-c2ccccc21,1.35 µM (inactive),0.199 µM (active),0.194 µM (active),0.692 µM (active),1.52 µM (inactive),0.177 µM (active),0.384 µM (active),1.49 µM (inactive),0.513 µM (active),1.19 µM (inactive),0.337 µM (active),1.7 µM (inactive),1.21 µM (inactive),1.55,1.03 µM (active),1.71 µM (inactive),1.41 µM (inactive),1.19 µM (inactive),2.1 µM (inactive)
CC1(C)CC[C@]2(C(=O)O)CC[C@]3(C)C(=CC[C@@H]4[C@@]5(C)CC[C@H](OC6OC(CO)C(O)C(O)C6O)C(C)(C)[C@@H]5CC[C@]43C)[C@@H]2C1 (stereo partly specified),1.99 µM (inactive),1.87 µM (inactive),2 µM (inactive),1.69 µM (inactive),1.6 µM (inactive),1.86 µM (inactive),1.69 µM (inactive),1.98 µM (inactive),1.42 µM (inactive),1.67 µM (inactive),1.85 µM (inactive),1.75 µM (inactive),1.45 µM (inactive),2.75,1.75 µM (inactive),2.3 µM (inactive),1.66 µM (inactive),1.7 µM (inactive),1.83 µM (inactive)
COc1ccccc1CNC(=O)[C@H](Cc1ccc(O)cn1)NC(C)=O,> 100 µM (inactive),> 100 µM (inactive),> 100 µM (inactive),> 100 µM (inactive),> 100 µM (inactive),> 100 µM (inactive),> 100 µM (inactive),> 100 µM (inactive),> 100 µM (inactive),> 100 µM (inactive),,> 100 µM (inactive),> 100 µM (inactive),> 100,,> 100 µM (inactive),> 100 µM (inactive),> 100 µM (inactive),> 100 µM (inactive)
CC(=O)N1C(OCc2ccccc2)CCN1c1ccccc1 (stereo unspecified),> 10 µM (inactive),> 10 µM (inactive),> 10 µM (inactive),> 10 µM (inactive),> 10 µM (inactive),> 10 µM (inactive),> 10 µM (inactive),> 10 µM (inactive),> 10 µM (inactive),> 10 µM (inactive),> 10 µM (inactive),> 10 µM (inactive),> 10 µM (inactive),> 10,> 10 µM (inactive),> 10 µM (inactive),> 10 µM (inactive),> 10 µM (inactive),> 10 µM (inactive)
CC1NC(=O)[C@H](C)N(C)C(=O)[C@@H]2CCCN2C(=O)[C@@H](NC(=O)C(Cc2ccccc2)NC(=O)/C=C/C=C/C=C/C=C/C=C/C(=O)NC2=C(O)CCC2=O)COC(=O)[C@@H]2C[C@@H](C)CN2C1=O (stereo partly drawn) (X28-[ξF]SP[NMeA][ξA][Pro(4R-Me)]; ester 2-C),> 100 µM (inactive),> 100 µM (inactive),> 100 µM (inactive),> 100 µM (inactive),> 100 µM (inactive),> 100 µM (inactive),> 100 µM (inactive),> 100 µM (inactive),> 100 µM (inactive),> 100 µM (inactive),,> 100 µM (inactive),> 100 µM (inactive),> 100,,> 100 µM (inactive),> 100 µM (inactive),> 100 µM (inactive),> 100 µM (inactive)
COP(=O)(OC)C1=c2c(C)noc2=C2C=COC2C1=O (stereo unspecified),,> 100 µM (inactive),> 100 µM (inactive),> 100 µM (inactive),> 100 µM (inactive),> 100 µM (inactive),> 100 µM (inactive),> 100 µM (inactive),> 100 µM (inactive),> 100 µM (inactive),> 100 µM (inactive),> 100 µM (inactive),> 100 µM (inactive),> 100,> 100 µM (inactive),> 100 µM (inactive),> 100 µM (inactive),> 100 µM (inactive),> 100 µM (inactive)
